According to patent US20090142808A1, “NOVEL ENZYME WITH FRUCTOFURANOSIDASE ACTIVITY, WHICH IS USED TO OBTAIN PREBIOTIC OLIGOSACCHARIDES” (Consejo Superior de Investigaciones Cientificas, priority 2005, published 2009):

Legend:
[1] = test system: extracellular fraction of X. dendrorhous (fructofuranosidase activity); experiment: Fructofuranosidase activity of the cell-free extracellular fraction on different carbohydrates (glucose release, glucose oxidase-peroxidase); format: biochemical, Xanthophyllomyces dendrorhous; conditions: for Specific activity: cell-free fraction of culture in maltose minimal medium, 2.37 ODU660 nm; for Fructofuranosidase activity detected: cell-free fraction, compound used as substrate
Procedure: (§1) The cell-free fraction was obtained by centrifugation (F-0) of an X. dendrorhous culture grown at 23° C. and 160 rpm. Fructofuranosidase activity was assayed in this fraction by assessing the release of glucose on different substrates. A colorimetric assay and standard methodology were used. The released glucose was quantified using the glucose oxidase-peroxidase coupled reaction: 0.4 ml of the solution to be assayed was mixed with 0.1 ml of A:B solution (20:1) (A: 0.85 U/ml glucose oxidase, 0.40 U/ml peroxidase in sodium phosphate buffer pH 5; B: 0.6% o-dianisidine). It was incubated for 30 minutes at 37° C. and spectrophotometrically quantified at 450 nm. A standard glucose curve (1 to 100 μg/ml) was used. The fructofuranosidase activity unit is defined in μg/ml min of glucose assessed in the described conditions.
The cell-free fraction, obtained by centrifuging an X. dendrorhous culture in maltose minimal medium, grown to an optical density of 2.37 ODU660 nm, was assayed on different substrates.

[2] = test system: X. dendrorhous F-3 fraction (purified fructofuranosidase); experiment: Hydrolytic (fructofuranosidase) activity of the purified enzyme F-3 on different substrates; format: biochemical, Xanthophyllomyces dendrorhous; conditions: for Specific activity: purified protein, 1% substrate; for Hydrolytic activity observed: enzyme purified to homogeneity (F-3)
Procedure: as §1
The hydrolytic activity of the enzyme purified to homogeneity (F-3) following the described process was assayed on different substrates.

[3] = test system: purified X. dendrorhous enzyme (F-3); experiment: Fructosyltransferase activity: sucrose 600 g/l incubated with purified enzyme at 45° C., HPLC; format: biochemical, Xanthophyllomyces dendrorhous; conditions: for Composition of the reaction mixture: 45° C., 600 g sucrose/l, 5 U/ml; for composition of the system at the end time: Example 8: 160 hours, 40° C. as printed (heading 45° C.), 200 rpm, FOS = tri- and tetrasaccharides
Procedure: (§2) A study was carried out using a high concentration of sucrose (600 g/l), conditions which can favor the formation of glycosidic bonds in detriment of hydrolysis. […] On one hand, fructose (peak 1) and glucose (peak 2) are formed as hydrolytic products. On the other hand, two trisaccharides are formed: a majority product (peak 4), which is most likely neokestose [β-D-Fru-(2→6)-α-D-Glu-(1→2)-D-Fru] (since it is the majority transfructosylation product described in X. dendrorhous cultures) and another minor product (peak 5), identified as 1-kestose [α-D-Glu-(1→2)-β-D-Fru(1→2)-β-D-Fru]. Small amounts of different compounds (peaks 6-8) which, taking into account the retention time in the column, are probably tetrasaccharides not yet identified, are furthermore observed. The sucrose which has not yet reacted corresponds to peak 3.
A solution with a high concentration of sucrose (600 g/l) in 0.2 M sodium acetate buffer pH 5.6 was prepared. 5 U/ml of fructofuranosidase (a unit U is the enzymatic activity corresponding to the release of a micromole of reducer sugars per minute using sucrose 100 g/l as a substrate in 0.2 M buffer sodium acetate pH 5.6 at 60° C.) were added. […] Aliquots were extracted at different times, incubated for 5 minutes at 80° C. to inactivate the enzyme, diluted 1:4 (v/v) with water, centrifuged for 5 min at 6000 rpm in an Eppendorf tube with a 0.45 μm filter and analyzed by HPLC liquid chromatography. The profile of the products formed can be seen in FIG. 5. […] Two trisaccharides are obtained: a majority product which is most likely neokestose [β-D-Fru-(2→6)-α-D-Glu-(1→2)-D-Fru] and another minor product identified as 1-kestose [α-D-Glu-(1→2)-β-D-Fru(1→2)-β-D-Fru]. At the end time (160 hours), the composition of the system was: 10.5% fructose, 17.6% glucose, 54.6% sucrose, 17.3% fructooligosaccharides (tri- and tetrasaccharides).

[4] = test system: purified X. dendrorhous enzyme (F-3); experiment: Fructosyltransferase activity: sucrose 600 g/l incubated with purified enzyme at 60° C., HPLC; format: biochemical, Xanthophyllomyces dendrorhous
Procedure: as §2
The total percentage (w/w) of fructooligosaccharides after 160 hours of reaction was the 9.7%, value relating to the total carbohydrates in the medium.

[5] = test system: Whole X. dendrorhous cells; conditions: cell suspension in phosphate-citrate buffer, 25° C., 11% sucrose; cited from earlier work
[6] = biological target: X. dendrorhous fructofuranosidase (Phaffia rhodozyma, UniProt B8YJM2); experiment: Kinetic characterization of the purified enzyme on sucrose; format: biochemical, Xanthophyllomyces dendrorhous; conditions: 20 minutes, 20 μl purified enzyme; standard error of the mean ±10
X. dendrorhous fructofuranosidase, sequence (B8YJM2 entry or part of it): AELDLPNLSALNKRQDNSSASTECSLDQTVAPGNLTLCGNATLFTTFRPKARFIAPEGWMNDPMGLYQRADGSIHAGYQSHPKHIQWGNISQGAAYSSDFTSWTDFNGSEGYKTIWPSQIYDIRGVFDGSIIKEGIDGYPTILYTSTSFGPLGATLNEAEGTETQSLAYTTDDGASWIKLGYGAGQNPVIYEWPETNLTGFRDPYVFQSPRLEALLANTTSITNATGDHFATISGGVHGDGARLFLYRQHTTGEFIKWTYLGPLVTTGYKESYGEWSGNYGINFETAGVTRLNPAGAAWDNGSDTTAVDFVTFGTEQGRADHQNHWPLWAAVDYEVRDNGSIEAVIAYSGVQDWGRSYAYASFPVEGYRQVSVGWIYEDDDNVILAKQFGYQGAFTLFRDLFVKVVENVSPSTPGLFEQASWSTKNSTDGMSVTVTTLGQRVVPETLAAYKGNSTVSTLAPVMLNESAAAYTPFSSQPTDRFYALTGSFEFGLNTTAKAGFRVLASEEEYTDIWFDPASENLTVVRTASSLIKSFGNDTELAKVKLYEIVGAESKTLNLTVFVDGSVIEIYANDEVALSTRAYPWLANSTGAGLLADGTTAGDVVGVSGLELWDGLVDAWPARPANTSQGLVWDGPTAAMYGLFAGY
Procedure: The kinetic characterization of the enzyme purified according to the described process was performed on sucrose. […] The assays were performed in 20 minutes and 20 μl of purified enzyme for each reaction according to the described process.

[7] = 160 h, new catalyst load (5 U) added after 140 hours
[8] = 186 h, new catalyst load (5 U) added after 140 hours
[9] = reaction time 24 h, 600 g sucrose/l, 5 U/ml
[10] = reaction time 140 h, 600 g sucrose/l, 5 U/ml
[11] = reaction time 160 h, 600 g sucrose/l, 5 U/ml

OC[C@H]1O[C@H](OC[C@H]2O[C@H](O[C@]3(CO)O[C@H](CO)[C@@H](O)[C@@H]3O)[C@H](O)[C@@H](O)[C@@H]2O)[C@H](O)[C@@H](O)[C@H]1O [raffinose]
Specific activity [1]: 335 mU/μg
Specific activity [2]: 8 U/μg

OC[C@H]1O[C@H](O[C@H]2[C@H](O)[C@@H](O)[C@@H](O[C@H]3[C@H](O)[C@@H](O)[C@@H](O[C@H]4[C@H](O)[C@@H](O)[C@@H](O[C@H]5[C@H](O)[C@@H](O)[C@@H](O[C@H]6[C@H](O)[C@@H](O)[C@@H](O[C@H]7[C@H](O)[C@@H](O)C(O)O[C@@H]7CO)O[C@@H]6CO)O[C@@H]5CO)O[C@@H]4CO)O[C@@H]3CO)O[C@@H]2CO)[C@H](O)[C@@H](O)[C@@H]1O (some centres unmarked) [maltoheptose]
Fructofuranosidase activity detected [1]: No activity was detected
Hydrolytic activity observed [2]: No activity was observed

OC[C@H]1O[C@@](CO)(OC[C@@]2(O[C@H]3O[C@H](CO)[C@@H](O)[C@H](O)[C@H]3O)O[C@H](CO)[C@@H](O)[C@@H]2O)[C@@H](O)[C@@H]1O [1-kestose]
Composition of the reaction mixture ([3]; reaction time 24 h): 9.2 grams/liter
Composition of the reaction mixture ([3]; reaction time 140 h): 24.8 grams/liter
Composition of the reaction mixture ([3]; reaction time 160 h): 33.5 grams/liter
Composition of the reaction mixture [4, 7]: 23.9 grams/liter
Composition of the reaction mixture [4, 8]: 25.8 grams/liter
Composition of the reaction mixture [4, 9]: 10.3 grams/liter
Composition of the reaction mixture [4, 10]: 21.3 grams/liter
Composition of the reaction mixture [4, 11]: 21.9 grams/liter
Specific activity [1]: 1675 mU/μg
Specific activity [2]: 41 U/μg

OC[C@H]1O[C@@](CO)(OC[C@H]2O[C@H](O[C@]3(CO)O[C@H](CO)[C@@H](O)[C@@H]3O)[C@H](O)[C@@H](O)[C@@H]2O)[C@@H](O)[C@@H]1O [neokestose]
Composition of the reaction mixture ([3]; reaction time 24 h): 20.5 grams/liter
Composition of the reaction mixture ([3]; reaction time 140 h): 47.4 grams/liter
Composition of the reaction mixture ([3]; reaction time 160 h): 53.3 grams/liter
Composition of the reaction mixture [4, 7]: 41.6 grams/liter
Composition of the reaction mixture [4, 8]: 43.9 grams/liter
Composition of the reaction mixture [4, 9]: 25.8 grams/liter
Composition of the reaction mixture [4, 10]: 34.3 grams/liter
Composition of the reaction mixture [4, 11]: 36.5 grams/liter
maximum of neokestose obtained [5]: 75.1 g/L

OC[C@H]1O[C@H](O[C@H]2[C@H](O)[C@@H](O)C(O)O[C@@H]2CO)[C@H](O)[C@@H](O)[C@@H]1O (mixture of isomers) [maltose]
Fructofuranosidase activity detected [1]: No activity was detected
Hydrolytic activity observed [2]: No activity was observed

OC[C@H]1O[C@@](CO)(OC[C@@]2(OC[C@@]3(O[C@H]4O[C@H](CO)[C@@H](O)[C@H](O)[C@H]4O)O[C@H](CO)[C@@H](O)[C@@H]3O)O[C@H](CO)[C@@H](O)[C@@H]2O)[C@@H](O)[C@@H]1O [nistose]
Specific activity [1]: 502 mU/μg
Specific activity [2]: 13 U/μg

O=C[C@H](O)[C@@H](O)[C@H](O)[C@H](O)CO [glucose]
Composition of the reaction mixture ([3]; reaction time 24 h): 37.8 grams/liter
Composition of the reaction mixture ([3]; reaction time 140 h): 106.8 grams/liter
Composition of the reaction mixture ([3]; reaction time 160 h): 109.3 grams/liter
composition of the system at the end time [3]: 17.6%
Composition of the reaction mixture [4, 7]: 119.5 grams/liter
Composition of the reaction mixture [4, 8]: 131.2 grams/liter
Composition of the reaction mixture [4, 9]: 53.2 grams/liter
Composition of the reaction mixture [4, 10]: 79.3 grams/liter
Composition of the reaction mixture [4, 11]: 84.3 grams/liter

O=C(CO)[C@@H](O)[C@H](O)[C@H](O)CO [fructose]
Composition of the reaction mixture ([3]; reaction time 24 h): 19.0 grams/liter
Composition of the reaction mixture ([3]; reaction time 140 h): 63.5 grams/liter
Composition of the reaction mixture ([3]; reaction time 160 h): 65.1 grams/liter
composition of the system at the end time [3]: 10.5%
Composition of the reaction mixture [4, 7]: 56.5 grams/liter
Composition of the reaction mixture [4, 8]: 76.0 grams/liter
Composition of the reaction mixture [4, 9]: 36.8 grams/liter
Composition of the reaction mixture [4, 10]: 40.9 grams/liter
Composition of the reaction mixture [4, 11]: 41.2 grams/liter

OC[C@H]1O[C@@](CO)(O[C@H]2O[C@H](CO)[C@@H](O)[C@H](O)[C@H]2O)[C@@H](O)[C@@H]1O [sucrose]
Km [6]: 4 mM
Vmax [6]: 947 μg glucose min^−1
kcat [6]: 2.35 s⁻¹
Composition of the reaction mixture ([3]; reaction time 24 h): 513.4 grams/liter
Composition of the reaction mixture ([3]; reaction time 140 h): 357.5 grams/liter
Composition of the reaction mixture ([3]; reaction time 160 h): 338.9 grams/liter
composition of the system at the end time [3]: 54.6%
Composition of the reaction mixture [4, 7]: 358.4 grams/liter
Composition of the reaction mixture [4, 8]: 323.1 grams/liter
Composition of the reaction mixture [4, 9]: 474.0 grams/liter
Composition of the reaction mixture [4, 10]: 424.2 grams/liter
Composition of the reaction mixture [4, 11]: 416.1 grams/liter
Specific activity [1]: 62140 mU/μg
Specific activity [2]: 675 U/μg

maltotriose
Fructofuranosidase activity detected [1]: No activity was detected
Hydrolytic activity observed [2]: No activity was observed

OC[C@H]1O[C@H](OC[C@H]2OC(O)(CO)[C@@H](O)[C@@H]2O)[C@H](O)[C@@H](O)[C@@H]1O (some centres unmarked) [palatinose]
Specific activity [1]: 217 mU/μg
Specific activity [2]: 5 U/μg

OC[C@H]1O[C@H](O[C@@H]2COC(O)(CO)[C@@H](O)[C@@H]2O)[C@H](O)[C@@H](O)[C@@H]1O (some centres unmarked) [leucrose]
Fructofuranosidase activity detected [1]: No activity was detected
Hydrolytic activity observed [2]: No activity was observed
